In patent US12503461B2, “Pesticidally active heterocyclic derivatives with sulfur and sulfoximine containing substituents” (SYNGENTA CROP PROTECTION AG, priority 2019, dated 2025):

Assays:
Assay type in all cases: in vivo
[1] = system: Bemisia tabaci (Cotton White Fly); experiment: Example B6: Bemisia tabaci (cotton white fly), feeding/contact activity, sprayed cotton leaf discs; conditions: foliar, 144 h, application rate of 200 ppm, adult white flies, 6 days after incubation
Experimental: Example B6: Bemisia tabaci (Cotton White Fly). Feeding/Contact Activity
Cotton leaf discs were placed on agar in 24-well microtiter plates and sprayed with aqueous test solutions prepared from 10′000 ppm DMSO stock solutions. After drying the leaf discs were infested with adult white flies. The samples were checked for mortality 6 days after incubation.

[2] = system: Frankliniella occidentalis (Western Flower Thrips); experiment: Example B3: Frankliniella occidentalis (western flower thrips), sprayed sunflower leaf discs; conditions: foliar, 168 h, application rate of 200 ppm, population of mixed ages, 7 days after infestation
Experimental: Example B3: Frankliniella occidentalis (Western Flower Thrips
Sunflower leaf discs were placed on agar in 24-well microtiter plates and sprayed with aqueous test solutions prepared from […] stock solutions. After drying the leaf discs were infested with a Frankliniella population of mixed ages. The samples were assessed for mortality 7 days after infestation.

[3] = system: Myzus persicae (Green Peach Aphid); experiment: Example B5: Myzus persicae (green peach aphid), feeding/contact activity, sprayed sunflower leaf discs; conditions: foliar, 144 h, application rate of 200 ppm, aphid population of mixed ages, 6 days after infestation
Experimental: Example B5: Myzus persicae (Green Peach Aphid). Feeding/Contact Activity
Sunflower leaf discs were placed onto agar in a 24-well microtiter plate and sprayed with aqueous test solutions prepared from 10′000 ppm DMSO stock solutions. After drying, the leaf discs were infested with an aphid population of mixed ages. The samples were assessed for mortality 6 days after infestation.

[4] = system: Spodoptera littoralis (Egyptian Cotton Leaf Worm); experiment: Example B7: Spodoptera littoralis (Egyptian cotton leaf worm), sprayed cotton leaf discs, L1 larvae; conditions: foliar, 72 h, application rate of 200 ppm, 3 days after infestation, in comparison to untreated samples
Summary of the method: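 Cotton leaf discs on agar were sprayed with aqueous test solutions made from 10′000 ppm DMSO stocks, dried, and infested with five L1 larvae. Mortality, anti-feeding and growth inhibition were scored against untreated samples 3 days after infestation; control means any category exceeds the untreated sample.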

[5] = system: Plutella xylostella (Diamond Back Moth); experiment: Example B4: Plutella xylostella (diamond back moth), treated artificial diet, eggs; conditions: 192 h, application rate of 200 ppm, 8 days after infestation, in comparison to untreated samples, read-out: effect in at least one of the two categories (mortality or growth inhibition)
Experimental: Example B4: Plutella xylostella (Diamond Back Moth
24-well microtiter plates with artificial diet were treated with aqueous test solutions prepared from 10′000 ppm DMSO stock solutions by pipetting. After drying, Plutella eggs were pipetted through a plastic stencil onto a gel blotting paper and the plate was closed with it. The samples were assessed for mortality and growth inhibition in comparison to untreated samples 8 days after infestation.

[6] = system: Euschistus heros (Neotropical Brown Stink Bug); experiment: Example B2: Euschistus heros (neotropical brown stink bug), sprayed soybean leaves, N2 nymphs; conditions: 120 h, application rate of 200 ppm, 5 days after infestation, in comparison to untreated samples, read-out: effect in at least one of the two categories (mortality or growth inhibition)
Experimental: Example B2: Euschistus heros (Neotropical Brown Stink Bug
Soybean leaves on agar in 24-well microtiter plates were sprayed with aqueous test solutions prepared from 10′000 ppm DMSO stock solutions. After drying the leaves were infested with N2 nymphs. The samples were assessed for mortality and growth inhibition in comparison to untreated samples 5 days after infestation.

[7] = system: Diabrotica balteata (Corn Root Worm); experiment: Example B1: Diabrotica balteata (corn root worm), sprayed maize sprouts on agar, L2 larvae; conditions: 96 h, application rate of 200 ppm, 4 days after infestation, in comparison to untreated samples, read-out: effect in at least one of the two categories (mortality or growth inhibition)
Experimental: Example B1: Diabrotica balteata (Corn Root Worm
Maize sprouts placed onto an agar layer in 24-well microtiter plates were treated with aqueous test solutions prepared from 10′000 ppm DMSO stock solutions by spraying. After drying, the plates were infested with L2 larvae (6 to 10 per well). The samples were assessed for mortality and growth inhibition in comparison to untreated samples 4 days after infestation.

[8] = system: Myzus persicae (Green Peach Aphid); experiment: Example B8: Myzus persicae (green peach aphid), systemic activity, pea seedling roots in test solution; conditions: 144 h, test rate of 24 ppm, aphid population of mixed ages, 6 days after placing seedlings into test solutions
Experimental: Example B8: Myzus persicae (Green Peach Aphid). Systemic Activity
Roots of pea seedlings infested with an aphid population of mixed ages were placed directly into aqueous test solutions prepared from 10′000 DMSO stock solutions. The samples were assessed for mortality 6 days after placing seedlings into test solutions.

CCS(=O)(=O)c1cc(N=S(C)(C)=O)cnc1-c1nc2cc(S(=N)(=O)C(F)(F)F)ccc2o1 (stereo not shown) [P1, [2-[5-[[dimethyl(oxo)-λ^6-sulfanylidene]amino]-3-ethylsulfonyl-2-pyridyl]-1,3-benzoxazol-5-yl]-imino-oxo-(trifluoromethyl)-λ^6-sulfane]
≥ 80%: mortality at 200 ppm [1] | mortality at 200 ppm [2] | mortality at 200 ppm [3] | percent control (mortality, anti-feeding effect or growth inhibition) at 200 ppm [4] | percent effect (mortality or growth inhibition) at 200 ppm [5] | effect (mortality or growth inhibition) at 200 ppm [6] | percent effect (mortality or growth inhibition) at 200 ppm [7]

CCS(=O)(=O)c1cc(C2(C#N)CC2)cnc1-c1nc2cc(S(=N)(=O)C(F)(F)F)ccc2o1 (stereo not shown) [P7, 1-[5-ethylsulfonyl-6-[5-(trifluoromethylsulfonimidoyl)-1,3-benzoxazol-2-yl]-3-pyridyl]cyclopropanecarbonitrile]
≥ 80%: mortality at 200 ppm [1] | percent control (mortality, anti-feeding effect or growth inhibition) at 200 ppm [4] | percent effect (mortality or growth inhibition) at 200 ppm [5] | effect (mortality or growth inhibition) at 200 ppm [6] | percent effect (mortality or growth inhibition) at 200 ppm [7]

CCS(=O)(=O)c1cc(C2CC2)cnc1-c1nc2cc(S(=N)(=O)C(F)(F)F)ccc2o1 (stereo not shown) [P12, [2-(5-cyclopropyl-3-ethylsulfonyl-2-pyridyl)-1,3-benzoxazol-5-yl]-imino-oxo-(trifluoromethyl)-λ^6-sulfane]
≥ 80%: mortality at 200 ppm [2] | mortality at 200 ppm [3] | percent control (mortality, anti-feeding effect or growth inhibition) at 200 ppm [4] | percent effect (mortality or growth inhibition) at 200 ppm [5] | effect (mortality or growth inhibition) at 200 ppm [6] | percent effect (mortality or growth inhibition) at 200 ppm [7]

CCS(=O)(=O)c1cccnc1-c1nc2cc(S(=O)(=NC(C)=O)C(F)(F)F)ccc2o1 (stereo not shown) [P17, N-[[2-(3-ethylsulfonyl-2-pyridyl)-1,3-benzoxazol-5-yl]-oxo-(trifluoromethyl)-λ^6-sulfanylidene]acetamide]
≥ 80%: mortality at 200 ppm [1] | mortality at 200 ppm [3] | percent control (mortality, anti-feeding effect or growth inhibition) at 200 ppm [4] | percent effect (mortality or growth inhibition) at 200 ppm [5] | effect (mortality or growth inhibition) at 200 ppm [6] | percent effect (mortality or growth inhibition) at 200 ppm [7]

CCN=S(=O)(c1cnc2c(c1)nc(-c1ncc(C3(C#N)CC3)cc1S(=O)(=O)CC)n2C)C(F)(F)F (stereo not drawn) [P20, 1-[5-ethylsulfonyl-6-[6-[N-ethyl-S-(trifluoromethyl)sulfonimidoyl]-3-methyl-imidazo[4,5-b]pyridin-2-yl]-3-pyridyl]cyclopropanecarbonitrile]
≥ 80%: mortality at 24 ppm [8] | mortality at 200 ppm [2] | mortality at 200 ppm [3] | percent control (mortality, anti-feeding effect or growth inhibition) at 200 ppm [4] | percent effect (mortality or growth inhibition) at 200 ppm [5] | effect (mortality or growth inhibition) at 200 ppm [6] | percent effect (mortality or growth inhibition) at 200 ppm [7]

CCS(=O)(=O)c1cc(C2(C#N)CC2)cnc1-c1nc2cc(S(=N)(=O)C(F)(F)F)cnc2n1C (stereo not shown) [P21, 1-[5-ethylsulfonyl-6-[3-methyl-6-(trifluoromethylsulfonimidoyl)imidazo[4,5-b]pyridin-2-yl]-3-pyridyl]cyclopropanecarbonitrile]
≥ 80%: mortality at 24 ppm [8] | mortality at 200 ppm [2] | mortality at 200 ppm [3] | percent control (mortality, anti-feeding effect or growth inhibition) at 200 ppm [4] | percent effect (mortality or growth inhibition) at 200 ppm [5] | effect (mortality or growth inhibition) at 200 ppm [6] | percent effect (mortality or growth inhibition) at 200 ppm [7]

CCS(=O)(=O)c1cc(OCC(C)(F)F)cnc1-c1nc2cc(S(=N)(=O)C(F)(F)F)ccc2o1 (stereo not shown) [P26, [2-[5-(2,2-difluoropropoxy)-3-ethylsulfonyl-2-pyridyl]-1,3-benzoxazol-5-yl]-imino-oxo-(trifluoromethyl)-λ^6-sulfane]
≥ 80%: mortality at 200 ppm [2] | mortality at 200 ppm [3] | percent control (mortality, anti-feeding effect or growth inhibition) at 200 ppm [4] | percent effect (mortality or growth inhibition) at 200 ppm [5] | effect (mortality or growth inhibition) at 200 ppm [6] | percent effect (mortality or growth inhibition) at 200 ppm [7]

CCN=S(=O)(c1ccc2oc(-c3ncc(OCC(C)(F)F)cc3S(=O)(=O)CC)nc2c1)C(F)(F)F (stereo not shown) [P27, [2-[5-(2,2-difluoropropoxy)-3-ethylsulfonyl-2-pyridyl]-1,3-benzoxazol-5-yl]-ethylimino-oxo-(trifluoromethyl)-λ^6-sulfane]
≥ 80%: mortality at 200 ppm [2] | mortality at 200 ppm [3] | percent control (mortality, anti-feeding effect or growth inhibition) at 200 ppm [4] | percent effect (mortality or growth inhibition) at 200 ppm [5] | effect (mortality or growth inhibition) at 200 ppm [6] | percent effect (mortality or growth inhibition) at 200 ppm [7]

CCN=S(=O)(c1ccc2c(c1)nc(-c1ncc(C3(C#N)CC3)cc1S(=O)(=O)CC)n2C)C(F)(F)F (stereo not drawn) [P32, 1-[5-ethylsulfonyl-6-[5-[N-ethyl-S-(trifluoromethyl)sulfonimidoyl]-1-methyl-benzimidazol-2-yl]-3-pyridyl]cyclopropanecarbonitrile]
≥ 80%: mortality at 24 ppm [8] | percent control (mortality, anti-feeding effect or growth inhibition) at 200 ppm [4] | percent effect (mortality or growth inhibition) at 200 ppm [5] | effect (mortality or growth inhibition) at 200 ppm [6] | percent effect (mortality or growth inhibition) at 200 ppm [7]

CCS(=O)(=O)c1cc(C2(C#N)CC2)cnc1-c1nc2cc(S(=N)(=O)C(F)(F)F)ccc2n1C (stereo not shown) [P33, 1-[5-ethylsulfonyl-6-[1-methyl-5-(trifluoromethylsulfonimidoyl)benzimidazol-2-yl]-3-pyridyl]cyclopropanecarbonitrile]
≥ 80%: mortality at 200 ppm [1] | percent control (mortality, anti-feeding effect or growth inhibition) at 200 ppm [4] | percent effect (mortality or growth inhibition) at 200 ppm [5] | effect (mortality or growth inhibition) at 200 ppm [6] | percent effect (mortality or growth inhibition) at 200 ppm [7]

CCS(=O)(=O)c1cc(C2(C#N)CC2)cnc1-c1nc2cc(S(=O)(=NCC(F)(F)F)C(F)(F)F)ccc2n1C (stereo not drawn) [P34, 1-[5-ethylsulfonyl-6-[1-methyl-5-[N-(2,2,2-trifluoroethyl)-S-(trifluoromethyl)sulfonimidoyl]benzimidazol-2-yl]-3-pyridyl]cyclopropanecarbonitrile]
≥ 80%: mortality at 200 ppm [1] | percent control (mortality, anti-feeding effect or growth inhibition) at 200 ppm [4] | percent effect (mortality or growth inhibition) at 200 ppm [5] | effect (mortality or growth inhibition) at 200 ppm [6] | percent effect (mortality or growth inhibition) at 200 ppm [7]

CCS(=O)(=O)c1cc(-c2nccc(C(F)(F)F)n2)cnc1-c1nc2cc(S(=N)(=O)C(F)(F)F)ccc2o1 (stereo not shown) [P40, [2-[3-ethylsulfonyl-5-[4-(trifluoromethyl)pyrimidin-2-yl]-2-pyridyl]-1,3-benzoxazol-5-yl]-imino-oxo-(trifluoromethyl)-λ^6-sulfane]
≥ 80%: mortality at 200 ppm [2] | percent control (mortality, anti-feeding effect or growth inhibition) at 200 ppm [4] | percent effect (mortality or growth inhibition) at 200 ppm [5] | effect (mortality or growth inhibition) at 200 ppm [6] | percent effect (mortality or growth inhibition) at 200 ppm [7]
